From ChEMBL document CHEMBL6083263, “The Discovery of MORF-627, a Highly Selective Conformationally-Biased Zwitterionic Integrin αvβ6 Inhibitor for Fibrosis” (J Med Chem, 2024)
pIC50: −log10 of the molar value. One block for each compound: values may come before it. The source made the active and inactive calls. The calls are words filed in the database; no cut-off is given here.

Assays:
Mus musculus [1] = experiment: Antifibrotic activity against BLM-induced po dosed C57BL/6J mouse acute lung fibrosis model assessed as reduction in modified ashcroft score administered twice daily for 14 days; format: functional; design: scale not given: the % may be the effect or the level left; conditions: time 14 day
Integrin alpha-V/beta-6 [2] = target: T1, Integrin alpha-V/beta-6 (Homo sapiens, UniProt P06756+P18564); experiment: Displacement of fluorescein labeled GRGDLGRL from human Integrin alphaVbeta6 preincubated for 15 mins followed by fluorescein labeled GRGDLGRL addition and measured after 1 hr by fluorescence polarization assay; format: protein-complex assay
Integrin alpha-V/beta-1 = Integrin alpha-V/beta-1 (Homo sapiens, UniProt P05556+P06756); experiment: Displacement of fluorescein labeled ACRGDGWC from human Integrin alphaVbeta1 preincubated for 15 mins followed by fluorescein labeled ACRGDGWC addition and measured after 1 hr by fluorescence polarization assay; format: protein-complex assay
Integrin alpha-V/beta-8 = Integrin alpha-V/beta-8 (Homo sapiens, UniProt P06756+P26012); experiment: Displacement of fluorescein labeled GRGDLGRL from human Integrin alphaVbeta8 preincubated for 15 mins followed by fluorescein labeled GRGDLGRL addition and measured after 1 hr by fluorescence polarization assay; format: protein-complex assay
[3] = Octanol/water partition coefficient, logD of the compound; format: physicochemical
[4] = Clearance in Sprague-Dawley rat at 1 mg/kg, iv measured upto 24 hrs by LC/MS-MS analysis; format: ADME, organism-based; conditions: in vivo
[5] = Volume of distribution at steady state in Sprague-Dawley rat at 1 mg/kg, iv measured upto 24 hrs by LC/MS-MS analysis; format: ADME, organism-based; conditions: in vivo, read-out: Vdss
[6] = Half-life in Sprague-Dawley rat at 1 mg/kg, iv measured upto 24 hrs by LC/MS-MS analysis; format: ADME, organism-based; conditions: in vivo
[7] = Oral bioavailability in Sprague-Dawley rat at 10 mg/kg measured upto 24 hrs by LC/MS-MS analysis; format: ADME, organism-based; conditions: in vivo
[8] = Clearance in C57BL/6 mouse at 1 mg/kg, iv measured upto 24 hrs by LC/MS-MS analysis; format: ADME, organism-based; conditions: in vivo
[9] = Volume of distribution at steady state in C57BL/6 mouse at 1 mg/kg, iv measured upto 24 hrs by LC/MS-MS analysis; format: ADME, organism-based; conditions: in vivo, read-out: Vdss
[10] = Half-life in C57BL/6 mouse at 1 mg/kg, iv measured upto 24 hrs by LC/MS-MS analysis; format: ADME, organism-based; conditions: in vivo
[11] = AUCinfinity in C57BL/6 mouse at 1 mg/kg, iv measured upto 24 hrs by LC/MS-MS analysis; format: ADME, organism-based; conditions: in vivo
[12] = AUCinfinity in Sprague-Dawley rat at 1 mg/kg, iv measured upto 24 hrs by LC/MS-MS analysis; format: ADME, organism-based; conditions: in vivo
[13] = Volume of distribution at steady state in Beagle dog at 1 mg/kg, iv measured upto 24 hrs by LC/MS-MS analysis; format: ADME, organism-based, Canis lupus familiaris; conditions: in vivo, read-out: Vdss
[14] = Half-life in Beagle dog at 1 mg/kg, iv measured upto 24 hrs by LC/MS-MS analysis; format: ADME, organism-based, Canis lupus familiaris; conditions: in vivo
[15] = AUCinfinity in Beagle dog at 1 mg/kg, iv measured upto 24 hrs by LC/MS-MS analysis; format: ADME, organism-based, Canis lupus familiaris; conditions: in vivo
[16] = Clearance in cynomolgus monkey at 1 mg/kg, iv measured upto 24 hrs by LC/MS-MS analysis; format: ADME, organism-based, Macaca fascicularis; conditions: in vivo
[17] = Volume of distribution at steady state in cynomolgus monkey at 1 mg/kg, iv measured upto 24 hrs by LC/MS-MS analysis; format: ADME, organism-based, Macaca fascicularis; conditions: in vivo, read-out: Vdss
[18] = Half-life in cynomolgus monkey at 1 mg/kg, iv measured upto 24 hrs by LC/MS-MS analysis; format: ADME, organism-based, Macaca fascicularis; conditions: in vivo
[19] = AUCinfinity in cynomolgus monkey at 1 mg/kg, iv measured upto 24 hrs by LC/MS-MS analysis; format: ADME, organism-based, Macaca fascicularis; conditions: in vivo
[20] = Cmax in C57BL/6 mouse at 30 mg/kg, po measured upto 24 hrs by LC/MS-MS analysis; format: ADME, organism-based; conditions: in vivo
[21] = Tmax in C57BL/6 mouse at 30 mg/kg, po measured upto 24 hrs by LC/MS-MS analysis; format: ADME, organism-based; conditions: in vivo
[22] = Half-life in C57BL/6 mouse at 30 mg/kg, po measured upto 24 hrs by LC/MS-MS analysis; format: ADME, organism-based; conditions: in vivo
[23] = AUCinfinity in C57BL/6 mouse at 30 mg/kg, po measured upto 24 hrs by LC/MS-MS analysis; format: ADME, organism-based; conditions: in vivo
[24] = Oral bioavailability in C57BL/6 mouse at 30 mg/kg measured upto 24 hrs by LC/MS-MS analysis; format: ADME, organism-based; conditions: in vivo
[25] = Fraction of compound absorbed into portal vein (FaFg) in C57BL/6 mouse at 30 mg/kg, po measured upto 24 hrs by LC/MS-MS analysis; format: ADME, organism-based; conditions: in vivo
[26] = Cmax in Sprague-Dawley rat at 30 mg/kg, po measured upto 24 hrs by LC/MS-MS analysis; format: ADME, organism-based; conditions: in vivo
[27] = Tmax in Sprague-Dawley rat at 30 mg/kg, po measured upto 24 hrs by LC/MS-MS analysis; format: ADME, organism-based; conditions: in vivo
[28] = Half-life in Sprague-Dawley rat at 30 mg/kg, po measured upto 24 hrs by LC/MS-MS analysis; format: ADME, organism-based; conditions: in vivo
[29] = AUCinfinity in Sprague-Dawley rat at 30 mg/kg, po measured upto 24 hrs by LC/MS-MS analysis; format: ADME, organism-based; conditions: in vivo
[30] = Oral bioavailability in Sprague-Dawley rat at 30 mg/kg measured upto 24 hrs by LC/MS-MS analysis; format: ADME, organism-based; conditions: in vivo
[31] = Fraction of compound absorbed into portal vein (FaFg) in Sprague-Dawley rat at 30 mg/kg, po measured upto 24 hrs by LC/MS-MS analysis; format: ADME, organism-based; conditions: in vivo
[32] = Cmax in cynomolgus […] at 5 mg/kg, po measured upto 24 hrs by LC/MS-MS analysis; format: ADME, organism-based, Macaca fascicularis; conditions: in vivo
[33] = Tmax in cynomolgus […] at 5 mg/kg, po measured upto 24 hrs by LC/MS-MS analysis; format: ADME, organism-based, Macaca fascicularis; conditions: in vivo
[34] = Half-life in cynomolgus […] at 5 mg/kg, po measured upto 24 hrs by LC/MS-MS analysis; format: ADME, organism-based, Macaca fascicularis; conditions: in vivo
[35] = AUCinfinity in cynomolgus […] at 5 mg/kg, po measured upto 24 hrs by LC/MS-MS analysis; format: ADME, organism-based, Macaca fascicularis; conditions: in vivo
[36] = Oral bioavailability in cynomolgus […] at 5 mg/kg measured upto 24 hrs by LC/MS-MS analysis; format: ADME, organism-based, Macaca fascicularis; conditions: in vivo
[37] = Fraction of compound absorbed into portal vein (FaFg) in cynomolgus monkey at 30 mg/kg, po measured upto 24 hrs by LC/MS-MS analysis; format: ADME, organism-based, Macaca fascicularis; conditions: in vivo
Integrin alpha-V/beta-6 [38] = target: T1, Integrin alpha-V/beta-6; experiment: Binding affinity to human Integrin alphaVbeta6 overexpressed in HEK293 cells incubated for 15 mins in presence of human serum by flow cytometry assay; format: cell-based
Integrin alpha-V/beta-6 [39] = target: T1, Integrin alpha-V/beta-6; experiment: Inhibition of Integrin alphaVbeta6 (unknown origin) mediated TGF-beta1 activation expressed in HEK293 cells cocultured with MLEC cells expressing luciferase reporter; format: cell-based
Integrin alpha-V/beta-6 [40] = target: T1, Integrin alpha-V/beta-6; experiment: Inhibition of Integrin alphaVbeta6 (unknown origin) mediated TGF-beta1 activation expressed in primary epithelial cells cocultured with idiopathic pulmonary fibroblast cells assessed as downregulation of COL1A1 mRNA expression measured after 72 hrs by qPCR assay; format: cell-based, Epithelial cell
Integrin alpha-V/beta-6 [41] = target: T1, Integrin alpha-V/beta-6; experiment: Inhibition of Integrin alphaVbeta6 (unknown origin) mediated TGF-beta1 activation expressed in primary epithelial cells cocultured with idiopathic pulmonary fibroblast cells assessed as downregulation of COL3A1 mRNA expression measured after 72 hrs by qPCR assay; format: cell-based, Epithelial cell
Integrin alpha-V/beta-6 [42] = target: T1, Integrin alpha-V/beta-6; experiment: Inhibition of Integrin alphaVbeta6 (unknown origin) mediated TGF-beta1 activation expressed in primary epithelial cells cocultured with idiopathic pulmonary fibroblast cells assessed as downregulation of FN mRNA expression measured after 72 hrs by qPCR assay; format: cell-based, Epithelial cell
Mus musculus [43] = experiment: Antifibrotic activity against BLM-induced C57BL/6J mouse acute lung fibrosis model assessed as reduction in pSMAD2:total protein ratio at 0.1 to 100 mg/kg, po administered twice daily for 3 days; format: functional, organism-based; conditions: dose 0.1-100 mg/kg, time 3.0 day
Mus musculus [44] = experiment: Antifibrotic activity against BLM-induced po dosed C57BL/6J mouse acute lung fibrosis model assessed as reduction in pSMAD2 level administered twice daily for 3 days; format: functional, organism-based; conditions: 72 h
Mus musculus [45] = experiment: Antifibrotic activity against BLM-induced C57BL/6J mouse acute lung fibrosis model assessed as reduction in modified ashcroft score at 1 to 10 mg/kg, po administered twice daily for 14 days; format: functional; design: scale not given: the % may be the effect or the level left; conditions: dose 1-10 mg/kg, time 14 day
Mus musculus [46] = experiment: Antifibrotic activity against BLM-induced C57BL/6J mouse acute lung fibrosis model assessed as reduction in picrosirius red positive area at 1 to 10 mg/kg, po administered twice daily for 14 days; format: functional, organism-based; conditions: dose 1-10 mg/kg, time 14.0 day
Mus musculus [47] = experiment: Antifibrotic activity against BLM-induced C57BL/6J mouse acute lung fibrosis model assessed as reduction in total collagen deposition at 3 mg/kg, po administered twice daily for 14 days; format: functional, organism-based; conditions: time 14.0 day
Mus musculus [48] = experiment: Antifibrotic activity against BLM-induced C57BL/6J mouse acute lung fibrosis model assessed as reduction in collagen fiber density at 3 mg/kg, po administered twice daily for 14 days; format: functional, organism-based; conditions: time 14.0 day
Mus musculus [49] = experiment: Antifibrotic activity against BLM-induced C57BL/6J mouse acute lung fibrosis model assessed as reduction in collagen structure index at 3 mg/kg, po administered twice daily for 14 days; format: functional, organism-based; conditions: time 14.0 day

T1 sequence (P06756 31-889 limits assumed): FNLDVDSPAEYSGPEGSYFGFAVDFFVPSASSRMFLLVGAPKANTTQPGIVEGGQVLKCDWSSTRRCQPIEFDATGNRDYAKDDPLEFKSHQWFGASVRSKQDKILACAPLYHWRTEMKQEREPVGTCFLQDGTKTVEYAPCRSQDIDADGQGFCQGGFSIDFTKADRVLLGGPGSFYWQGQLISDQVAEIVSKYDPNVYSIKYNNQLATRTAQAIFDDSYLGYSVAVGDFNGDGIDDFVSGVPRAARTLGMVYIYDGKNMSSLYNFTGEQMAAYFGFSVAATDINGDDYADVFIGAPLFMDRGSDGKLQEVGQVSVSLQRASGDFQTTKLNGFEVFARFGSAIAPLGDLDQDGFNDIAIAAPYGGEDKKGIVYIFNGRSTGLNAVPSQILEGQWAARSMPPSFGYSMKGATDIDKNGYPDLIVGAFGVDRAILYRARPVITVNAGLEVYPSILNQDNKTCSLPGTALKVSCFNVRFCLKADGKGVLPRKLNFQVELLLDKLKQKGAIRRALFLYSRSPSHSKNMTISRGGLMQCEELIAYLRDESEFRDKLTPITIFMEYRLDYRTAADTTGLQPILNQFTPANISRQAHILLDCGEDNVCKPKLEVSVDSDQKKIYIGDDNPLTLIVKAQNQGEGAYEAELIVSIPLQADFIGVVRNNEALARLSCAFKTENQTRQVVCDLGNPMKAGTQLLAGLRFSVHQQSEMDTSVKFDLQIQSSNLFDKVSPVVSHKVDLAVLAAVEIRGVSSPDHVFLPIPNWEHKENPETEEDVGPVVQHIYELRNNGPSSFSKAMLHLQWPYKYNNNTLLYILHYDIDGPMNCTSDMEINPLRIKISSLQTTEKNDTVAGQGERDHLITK
T1 sequence (P06756 891-1048 limits assumed): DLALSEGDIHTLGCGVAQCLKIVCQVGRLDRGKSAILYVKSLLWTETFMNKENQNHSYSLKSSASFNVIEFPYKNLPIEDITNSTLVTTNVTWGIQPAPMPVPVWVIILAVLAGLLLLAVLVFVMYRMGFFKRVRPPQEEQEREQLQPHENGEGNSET
T1 sequence (P18564 22-788 limits assumed): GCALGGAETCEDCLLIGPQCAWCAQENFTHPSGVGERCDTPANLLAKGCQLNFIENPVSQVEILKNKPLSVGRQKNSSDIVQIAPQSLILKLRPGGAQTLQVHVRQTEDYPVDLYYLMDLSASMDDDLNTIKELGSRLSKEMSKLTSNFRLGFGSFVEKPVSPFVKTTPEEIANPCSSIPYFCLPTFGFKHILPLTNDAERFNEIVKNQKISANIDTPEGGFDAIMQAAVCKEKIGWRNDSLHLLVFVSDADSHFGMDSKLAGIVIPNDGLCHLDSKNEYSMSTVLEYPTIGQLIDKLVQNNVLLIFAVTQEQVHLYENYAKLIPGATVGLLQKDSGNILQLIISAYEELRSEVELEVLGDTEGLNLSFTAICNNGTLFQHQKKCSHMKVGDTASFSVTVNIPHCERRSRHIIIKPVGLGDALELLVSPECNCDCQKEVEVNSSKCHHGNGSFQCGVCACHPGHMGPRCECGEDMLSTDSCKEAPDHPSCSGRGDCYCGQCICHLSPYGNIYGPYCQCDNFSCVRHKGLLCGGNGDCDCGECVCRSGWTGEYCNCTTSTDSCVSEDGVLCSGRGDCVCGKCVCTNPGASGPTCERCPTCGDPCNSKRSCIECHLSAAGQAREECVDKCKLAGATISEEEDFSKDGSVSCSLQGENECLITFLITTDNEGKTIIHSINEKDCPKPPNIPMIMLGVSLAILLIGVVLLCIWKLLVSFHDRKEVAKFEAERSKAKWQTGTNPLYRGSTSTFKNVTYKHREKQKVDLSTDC
Integrin alpha-V/beta-1, sequence (P05556 21-798 limits assumed): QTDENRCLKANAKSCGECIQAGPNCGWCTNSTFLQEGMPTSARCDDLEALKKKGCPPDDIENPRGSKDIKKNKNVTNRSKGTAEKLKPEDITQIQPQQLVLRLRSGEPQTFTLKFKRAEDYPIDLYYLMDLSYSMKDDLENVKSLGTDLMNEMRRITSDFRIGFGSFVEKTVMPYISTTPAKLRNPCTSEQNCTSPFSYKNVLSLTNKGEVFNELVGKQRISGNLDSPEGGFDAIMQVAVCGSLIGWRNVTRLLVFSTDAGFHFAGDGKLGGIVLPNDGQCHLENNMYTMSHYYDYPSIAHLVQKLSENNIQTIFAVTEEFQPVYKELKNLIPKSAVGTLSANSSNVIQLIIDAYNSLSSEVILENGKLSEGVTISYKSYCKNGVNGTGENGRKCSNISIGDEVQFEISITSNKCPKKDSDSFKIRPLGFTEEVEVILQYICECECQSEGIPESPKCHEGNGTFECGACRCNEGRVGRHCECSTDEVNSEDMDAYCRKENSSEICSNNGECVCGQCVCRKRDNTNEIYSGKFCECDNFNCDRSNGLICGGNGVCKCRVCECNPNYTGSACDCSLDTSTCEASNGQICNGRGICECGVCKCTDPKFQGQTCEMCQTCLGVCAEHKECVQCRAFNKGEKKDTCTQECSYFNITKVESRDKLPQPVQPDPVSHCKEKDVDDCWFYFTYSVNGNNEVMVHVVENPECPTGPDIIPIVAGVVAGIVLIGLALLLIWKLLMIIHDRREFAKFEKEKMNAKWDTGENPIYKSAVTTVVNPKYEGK
Integrin alpha-V/beta-1, sequence (P06756 31-889 limits assumed): as the sequence (P06756 31-889 limits assumed) above
Integrin alpha-V/beta-1, sequence (P06756 891-1048 limits assumed): as the sequence (P06756 891-1048 limits assumed) above
Integrin alpha-V/beta-8, sequence (P06756 31-889 limits assumed): as the sequence (P06756 31-889 limits assumed) above
Integrin alpha-V/beta-8, sequence (P06756 891-1048 limits assumed): as the sequence (P06756 891-1048 limits assumed) above
Integrin alpha-V/beta-8, sequence (P26012 43-769 limits assumed): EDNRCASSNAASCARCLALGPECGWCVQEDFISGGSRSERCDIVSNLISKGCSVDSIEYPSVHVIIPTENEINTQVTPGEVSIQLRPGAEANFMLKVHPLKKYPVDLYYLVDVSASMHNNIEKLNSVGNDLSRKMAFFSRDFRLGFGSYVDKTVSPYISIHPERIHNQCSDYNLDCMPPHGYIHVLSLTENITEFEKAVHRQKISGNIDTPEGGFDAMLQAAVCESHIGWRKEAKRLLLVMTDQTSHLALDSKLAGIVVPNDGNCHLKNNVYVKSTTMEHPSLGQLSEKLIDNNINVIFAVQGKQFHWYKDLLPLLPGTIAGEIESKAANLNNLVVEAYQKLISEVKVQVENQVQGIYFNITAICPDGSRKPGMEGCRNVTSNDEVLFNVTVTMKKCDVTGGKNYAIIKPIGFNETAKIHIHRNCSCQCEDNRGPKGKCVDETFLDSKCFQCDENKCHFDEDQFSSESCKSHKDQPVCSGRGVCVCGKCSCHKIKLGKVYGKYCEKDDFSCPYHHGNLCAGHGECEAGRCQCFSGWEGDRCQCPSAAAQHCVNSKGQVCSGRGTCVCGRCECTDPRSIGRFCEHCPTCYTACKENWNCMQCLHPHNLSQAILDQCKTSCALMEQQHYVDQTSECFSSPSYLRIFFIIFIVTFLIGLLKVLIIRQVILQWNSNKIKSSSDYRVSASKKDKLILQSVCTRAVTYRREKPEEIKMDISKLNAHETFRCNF

Compound: Cc1cccc(-c2[nH]c(C(C)(C)C)nc2-c2ccc3nccnc3c2)n1
- Activity (Mus musculus [1]): 37%

- pIC50 (Integrin alpha-V/beta-6 [2]): 8.96
- pIC50 (Integrin alpha-V/beta-1): 6.31
- pIC50 (Integrin alpha-V/beta-8): 6.48
- logD [3]: 2.2
- clearance [4]: 28 mL/min/kg
- Vd [5]: 3.1 L/kg
- half-life [6]: 1.9 h
- bioavailability [7]: 22%
- clearance [8]: 18 mL/min/kg
- Vd [9]: 2.07 L/kg
- half-life [10]: 1.9 h
- AUC(0-inf) [11]: 940 ng·h/mL
- AUC(0-inf) [12]: 610 ng·h/mL
- Vd [13]: 1.84 L/kg
- half-life [14]: 4.9 h
- AUC [15]: 2970 ng·h/mL
- clearance [16]: 10.5 mL/min/kg
- Vd [17]: 2.45 L/kg
- half-life [18]: 4.9 h
- AUC(0-inf) [19]: 1590 ng·h/mL
- Cmax [20]: 7600 ng/mL
- Tmax [21]: 0.25 h
- t1/2 [22]: 2.6 h
- AUC(0-inf) [23]: 19000 ng·h/mL
- bioavailability [24]: 66%
- FaFg [25]: 83%
- Cmax [26]: 14000 ng/mL
- Tmax [27]: 0.25 h
- t1/2 [28]: 1.8 h
- AUC(0-inf) [29]: 14000 ng·h/mL
- bioavailability [30]: 74%
- FaFg [31]: 123%
- Cmax [32]: 540 ng/mL
- Tmax [33]: 1 h
- t1/2 [34]: 4.8 h
- AUC(0-inf) [35]: 1600 ng·h/mL
- bioavailability [36]: 16%
- FaFg [37]: 21%
- pIC50 (Integrin alpha-V/beta-6 [38]): 8.04
- pIC50 (Integrin alpha-V/beta-6 [39]): 8.58
- pIC50 (Integrin alpha-V/beta-6 [40]): 8.74
- pIC50 (Integrin alpha-V/beta-6 [41]): 7.89
- pIC50 (Integrin alpha-V/beta-6 [42]): 7.69
- pIC50 (Mus musculus [44]): 8.08
Compound: O=C(O)[C@H](c1cc(F)ccc1[C@@H]1CCC2(CC2)CO1)N1CC[C@@H](OCCCCc2ccc3c(n2)NCCC3)C1
- Activity (Mus musculus [43]): Active; Showed Significant Activity At 10 To 30 Mg/Kg
- Activity (Mus musculus [45]): 33%
- Activity (Mus musculus [46]): Active; No Statistical Significant Activity
- Activity (Mus musculus [47]): Active
- Activity (Mus musculus [48]): Active
- Activity (Mus musculus [49]): Active
